Measurements taken from patent publication US20100075907A1, “NEUROMEDIN U RECEPTOR AGONISTS AND USES THEREOF” (priority 2006, published 2010).
Non-standard residues stand in square brackets, D forms with d. Residues, ends and D or L forms follow the SMILES beside them. No end group written: not given here. *: point of attachment. X1 = CC(C)CCC[C@@H](C)[C@H]1CC[C@H]2[C@@H]3CC=C4C[C@@H](OC(=O)C*)CC[C@]4(C)[C@H]3CC[C@]12C; hArg = N=C(N)NCCCC[C@H](N)C(=O)O

Experiments:
diet-induced obese mice = experiment: Feeding study in diet-induced obese mice (food intake, body weight); format: in vivo; settings: for % Food intake (FI) reductions Day 1: Day 1, based on vehicle responses; for % Food intake (FI) reductions Day 2: Day 2, based on vehicle responses; for % Food intake (FI) reductions Day 3: Day 3, based on vehicle responses
Excerpt: NMUR1 knockout (Nmur1−/−) mice were generated using standard homologous recombination techniques. Nmur1 mice were subsequently transferred to Taconic Farms where they were either maintained on a 75% C57BL/6×25% 129S6/SvEv mixed genetic background or backcrossed six generations to C57BL/6. NMUR2 knockout (Nmur2−/−) mice were licensed from Deltagen Inc., San Mateo, Calif. and subsequently transferred to Taconic Farms where they were either maintained on a 75% C57BL/6×25% 129/OlaHsd mixed genetic background or backcrossed for seven generations to C57BL/6. NMUR1 and NMUR2 double knockout (Nmur1&2−/−) mice were generated by crossing N6 Nmur1−/− mice to N7 Nmur2−/− mice. Mice were individually housed in Tecniplast cages in a conventional SPF facility. Mice were initially maintained on a regular chow diet and then early in their life were switched to a high fat diet (D12492: 60% kcal from fat; Research Diets, Inc., New Brunswick, N.J.) with ad libitum access to water in a 12-hour light/12-hour dark cycle.
Ad libitum fed male diet-induced obese mice were weighed and dosed either i.p. or s.c. about 30 minutes prior to the onset of the dark phase of the light cycle and provided with a preweighed aliquot of high fat diet D12492 which was then weighed 2 hours and 18 hours (day 1), 42 hours (day 2), 66 hours (day 3), and 90 hours (day 4) after the onset of the initial dark phase. Mice were weighed at the 18, 42, 66 and 90 hour time points.

rat NMUR1-ATG = target: T1, rat NMUR1-ATG (Rattus norvegicus, UniProt Q9JJI5); experiment: 125I-hNMU-25 binding assay, rat R1-ATG; parameters: expressed in transfected cells; host or cells: HEK-293 FLP-In cells (pcDNA5)
T1 sequence (Q9JJI5 1-425): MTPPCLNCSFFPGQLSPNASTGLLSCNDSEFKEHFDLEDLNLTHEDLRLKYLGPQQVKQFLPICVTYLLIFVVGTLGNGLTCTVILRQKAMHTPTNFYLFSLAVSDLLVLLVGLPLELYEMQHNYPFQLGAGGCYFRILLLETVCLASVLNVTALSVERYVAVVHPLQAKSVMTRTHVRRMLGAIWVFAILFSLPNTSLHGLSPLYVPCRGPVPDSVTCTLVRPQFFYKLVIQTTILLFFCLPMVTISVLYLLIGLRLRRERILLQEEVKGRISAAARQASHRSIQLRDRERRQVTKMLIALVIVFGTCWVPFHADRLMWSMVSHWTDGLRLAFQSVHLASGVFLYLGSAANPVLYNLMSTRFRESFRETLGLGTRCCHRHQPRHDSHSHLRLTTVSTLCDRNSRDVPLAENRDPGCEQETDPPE
Protocol: Confluent cell monolayers expressing NMU receptors (the HEK cells described above) were harvested with phosphate buffered saline, collected by centrifugation, and resuspended in membrane buffer (50 mM TrisCl pH 7.4, 5 mM MgCl2, 1× Protease Inhibitor Cocktail, 10 μM phosphoramidon). After the cell pellet was homogenized, the solution was centrifuged at 18,000 rpm for 20 minutes at 4° C. The pellet was resuspended in membrane buffer to yield a final concentration of 0.5-5 μg/μL of membrane and stored at −80° C.
Experiments were performed in assay buffer (25 mM TrisCl, pH 7.4, 10 mM MgCl2, 2 mM EDTA, 1× Protease Inhibitor Cocktail, 100 μg/mL Bacitricin, 10 μM phosphoramidon) in 200 μL volumes in a 96-well format using 2-5 μg of membrane and 0.1 nM ^125I-hNMU-25 (about 12,000 cpm/well). For non-specific binding, 1 μM hNMU-25 was added. About 5 μL of peptides were added to measure antagonist activity, and the entire reaction was incubated at room temperature with shaking for 80 minutes. The reaction was terminated by rapid filtration through 0.3% poly-ethylenimine presoaked Millipore 96-well filter plates and washed with ice-cold buffer (5 mM TrisCl pH 7.4, 10 mM MgCl2, 2.5 mM EDTA, 0.04% Triton X-100). Plates were air-dried overnight at room temperature and recovered radioactivity was determined by standard scintillation counting. IC50 values were determined using GraphPad Prism software.
Concentration-response curves and radioligand-binding data were fitted using Prism (GraphPad Software). Results are summarized below in Tables 8 and 9.

hNMUR2 = hNMUR2 (Homo sapiens, UniProt Q9GZQ4); experiment: FLIPR calcium mobilization assay, human NMUR2; format: cell-based; parameters: expressed in transfected cells; host or cells: FLP-In CHO or HEK-293 FLP-In cells (pcDNA5); HEK-293/aeq17 lines (pcDNA3.1) were also made; settings: functional data, human R2
Sequence of hNMUR2 (Q9GZQ4 whole entry): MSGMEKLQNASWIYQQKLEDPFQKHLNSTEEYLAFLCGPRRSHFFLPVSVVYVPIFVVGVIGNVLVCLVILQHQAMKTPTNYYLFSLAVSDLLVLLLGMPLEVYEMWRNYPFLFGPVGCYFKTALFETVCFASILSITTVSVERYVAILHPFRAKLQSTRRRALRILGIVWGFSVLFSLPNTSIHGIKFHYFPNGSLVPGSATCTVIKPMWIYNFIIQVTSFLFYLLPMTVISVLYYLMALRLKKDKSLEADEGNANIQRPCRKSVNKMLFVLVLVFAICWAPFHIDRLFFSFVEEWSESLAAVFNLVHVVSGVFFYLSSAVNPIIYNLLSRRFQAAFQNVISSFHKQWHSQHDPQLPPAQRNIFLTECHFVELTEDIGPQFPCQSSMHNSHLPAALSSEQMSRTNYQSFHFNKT

NMUR1 and NMUR2 = experiment: NMU receptor subtype selectivity (EC50 ratios human NMUR2/human NMUR1); format: cell-based; settings: NMUR1 vs NMUR2
Protocol: The present invention provides neuromedin U receptor agonist. The neuromedin U receptor agonist described herein act at NMU receptors, bind the NMU receptors, and stimulate NMU receptor activity. In one aspect, the neuromedin U receptor agonists are specific for one receptor subtype, wherein such specificity is defined as having an IC50 values that is less than about 200 nM in the corresponding NMUR1 or NMUR2 receptor binding assay. Selectivity is based upon functional activity or EC50 ratios at human NMUR2/human NMUR1 for NMUR1-selective peptides and at human NMUR1/human NMUR2 for NMUR2-selective peptides. Further, the selective neuromedin U receptor agonists described herein range from about 21 to 909-fold selective for NMUR1 and from about 2 to 200-fold selective for NMUR2. In another aspect, the neuromedin U receptor agonists are capable of binding and stimulating both the NMUR1 and NMUR2 receptors and have been derivatized to enable the neuromedin U receptor agonists to cross the blood-brain bather and interact with NMU receptors in the brain. The neuromedin U receptor agonists can be used therapeutically and as research tools.

CC(C)C[C@@H](NC(=O)[C@H](Cc1ccccc1)NC(=O)[C@H](Cc1ccc(O)cc1)NC(=O)CNC(=O)[C@H](CCCNC(=N)N)NC(=O)[C@H](CO)NC(=O)[C@H](CCC(N)=O)NC(=O)[C@H](CO)NC(=O)[C@H](C)NC(=O)[C@H](Cc1ccccc1)NC(=O)[C@@H]1CCCN1C(=O)[C@H](CO)NC(=O)[C@H](CCC(N)=O)NC(=O)[C@H](Cc1ccccc1)NC(=O)[C@H](CCC(=O)O)NC(=O)[C@H](CCC(=O)O)NC(=O)[C@H](CC(=O)O)NC(=O)[C@@H](NC(=O)[C@H](CCCNC(=N)N)NC(=O)[C@@H](N)Cc1ccccc1)C(C)C)C(=O)N[C@@H](Cc1c[nH]c2ccccc12)C(=O)N[C@@H](CCCNC(=N)N)C(=O)N1CCC[C@H]1C(=O)N[C@@H](CCCNC(=N)N)C(=O)N[C@@H](CC(N)=O)C(N)=O [Agonist H] (H-FRVDEEFQSPFASQSRGYF[dL]WRPRN-NH2; N-terminus assumed)
food intake (diet-induced obese mice; acute peripheral administration, wild-type mice): significantly reduced food intake | food intake (diet-induced obese mice; ip 3.25 mmoles/kg, diet-induced obese Nmur1+/+ and Nmur1−/− mice, about 2 and 18 hours): reduces food intake | % inhibition of NMU-25 binding (rat NMUR1-ATG): 100% | IC50 (rat NMUR1-ATG; binding): 15.9 nM | IC50 (hNMUR2): > 1000 nM

CC(C)C[C@H](NC(=O)[C@H](Cc1c[nH]c2ccccc12)NC(=O)[C@H](Cc1ccccc1)NC(=O)CNC(=O)[C@H](CCCNC(=N)N)NC(=O)[C@H](CO)NC(=O)[C@H](CCC(N)=O)NC(=O)[C@H](CO)NC(=O)[C@H](C)NC(=O)[C@H](Cc1ccccc1)NC(=O)[C@@H]1CCCN1C(=O)[C@H](CO)NC(=O)[C@H](CCC(N)=O)NC(=O)[C@H](Cc1ccccc1)NC(=O)[C@H](CCC(=O)O)NC(=O)[C@H](CCC(=O)O)NC(=O)[C@H](CC(=O)O)NC(=O)[C@@H](NC(=O)[C@H](CCCNC(=N)N)NC(=O)[C@@H](N)Cc1ccccc1)C(C)C)C(=O)N[C@@H](Cc1ccccc1)C(=O)N[C@@H](CCCNC(=N)N)C(=O)N1CCC[C@H]1C(=O)N[C@@H](CCCCNC(=N)N)C(=O)N[C@@H](CC(N)=O)C(N)=O [Agonist O] (H-FRVDEEFQSPFASQSRGFWLFRP[hArg]N-NH2; N-terminus assumed)
receptor subtype specificity (NMUR1 and NMUR2): bispecific

CC(C)C[C@H](NC(=O)[C@H](Cc1c[nH]c2ccccc12)NC(=O)[C@H](Cc1ccccc1)NC(=O)CNC(=O)[C@H](CCCNC(=N)N)NC(=O)[C@H](CO)NC(=O)[C@H](CCC(N)=O)NC(=O)[C@H](CO)NC(=O)[C@H](C)NC(=O)[C@H](Cc1ccccc1)NC(=O)[C@@H]1CCCN1C(=O)[C@H](CO)NC(=O)[C@H](CCC(N)=O)NC(=O)[C@H](Cc1ccccc1)NC(=O)[C@H](CCC(=O)O)NC(=O)[C@H](CCC(=O)O)NC(=O)[C@H](CC(=O)O)NC(=O)[C@@H](NC(=O)[C@H](CCCNC(=N)N)NC(=O)[C@@H](N)Cc1ccccc1)C(C)C)C(=O)N[C@@H](Cc1ccccc1)C(=O)N[C@@H](CCCNC(=N)N)C(=O)N[C@@H](C)C(=O)N[C@@H](CCCCNC(=N)N)C(=O)N[C@@H](CC(N)=O)C(N)=O [Agonist P] (H-FRVDEEFQSPFASQSRGFWLFRA[hArg]N-NH2; N-terminus assumed)
receptor subtype specificity (NMUR1 and NMUR2): bispecific

CC(=O)N[C@@H](CSCC(=O)O[C@H]1CC[C@@]2(C)C(=CC[C@H]3[C@@H]4CC[C@H]([C@H](C)CCCC(C)C)[C@@]4(C)CC[C@@H]32)C1)C(=O)NCC(=O)N[C@@H](Cc1ccc(O)cc1)C(=O)N[C@@H](Cc1ccccc1)C(=O)N[C@@H](CC(C)C)C(=O)N[C@@H](Cc1ccccc1)C(=O)N[C@@H](CCCNC(=N)N)C(=O)N1CCC[C@H]1C(=O)N[C@@H](CCCNC(=N)N)C(=O)N[C@@H](CC(N)=O)C(N)=O [NMU11] (Ac-C(X1)GYFLFRPRN-NH2)
extension of serum half-life by PEGylation (diet-induced obese mice): two days

Ac-C2FQSPFASQSRGYFLFRPRN-CONH2 ({Ac-C(PEG 40 kDa)}-FQSPFASQSRGYFLFRPRN-NH2; not fully specified; printed as Ac-C2FQSPFASQSRGYFLFRPRN-CONH2) [NMU20, C2 = Cys(PEG)240 kDa]
extension of serum half-life by PEGylation (diet-induced obese mice): three days | Body weight (BW) change (in grams) {relative to vehicle} Day 1 (diet-induced obese mice; 10 mg/kg): −2.2 grams | % Food intake (FI) reductions Day 1 (diet-induced obese mice; 10 mg/kg): 67% | Body weight (BW) change (in grams) {relative to vehicle} Day 2 (diet-induced obese mice; 10 mg/kg): −1.1 grams | % Food intake (FI) reductions Day 2 (diet-induced obese mice; 10 mg/kg): 65% | Body weight (BW) change (in grams) {relative to vehicle} Day 3 (diet-induced obese mice; 10 mg/kg): +0.3 grams | % Food intake (FI) reductions Day 3 (diet-induced obese mice; 10 mg/kg): 23%

Ac-C2FRVDEEFQSPFASQSRGYFLFRPRN-CONH2 [NMU9] ({Ac-C(PEG 40 kDa)}-FRVDEEFQSPFASQSRGYFLFRPRN-NH2) [C2 = Cys(PEG)240 kDa from Nektar (mPEG2-MAL-40 k)]
extension of serum half-life by PEGylation (diet-induced obese mice): three days | Body weight (BW) change (in grams) {relative to vehicle} Day 1 (diet-induced obese mice; 10 mg/kg): −2.0 grams | % Food intake (FI) reductions Day 1 (diet-induced obese mice; 10 mg/kg): 56% | Body weight (BW) change (in grams) {relative to vehicle} Day 2 (diet-induced obese mice; 10 mg/kg): −1.2 grams | % Food intake (FI) reductions Day 2 (diet-induced obese mice; 10 mg/kg): 57% | Body weight (BW) change (in grams) {relative to vehicle} Day 3 (diet-induced obese mice; 10 mg/kg): −0.2 grams | % Food intake (FI) reductions Day 3 (diet-induced obese mice; 10 mg/kg): 18%

Ac-FRVDEEFQSPFASQSRGYFLFRPRN-NH2 [NMU2]
Body weight (BW) change (in grams) {relative to vehicle} Day 1 (diet-induced obese mice; 3 mg/kg): −0.7 grams | % Food intake (FI) reductions Day 1 (diet-induced obese mice; 3 mg/kg): 25%

Ac-FRVDEEFQSPFASQSRPYFLFRPRN-NH2 [NMU5]
Body weight (BW) change (in grams) {relative to vehicle} Day 1 (diet-induced obese mice; 3 mg/kg): −0.5 grams | % Food intake (FI) reductions Day 1 (diet-induced obese mice; 3 mg/kg): 26%

FALFRPRN-NH2 [Agonist N]
receptor subtype specificity (NMUR1 and NMUR2): bispecific

H-FRVDEEFQSPFASQSRPYFLFRPRN-NH2 [NMU4]
Body weight (BW) change (in grams) {relative to vehicle} Day 1 (diet-induced obese mice; 3 mg/kg): −0.3 grams | % Food intake (FI) reductions Day 1 (diet-induced obese mice; 3 mg/kg): 12%
